# According to US20110288036A1, “Methods for Treating or Preventing Vascular Graft Failure” (priority 2010, published 2011):
# How the values were obtained:
# [1] = test system: mouse lung endothelial cells (MLEC); assay: MCP-1 immunoassay of MLEC conditioned medium; type: cell-based; conditions: even at high doses
# Procedure: Monocyte Chemotractic Protein-1 (MCP-1) production from mouse lung endothelial cells (MLEC) was analyzed using conditioned culture medium by Quantikine® Mouse CCL/JE/MCP-1 Immunoassay (R&D Systems) following the manufacturer's instructions. Briefly, the assay employs a quantitative sandwich enzyme immunoassay technique in which a monoclonal antibody specific for MCP-1 has been pre-coated onto a microplaste. Standards and samples are pipetted into the wells and any MCP-1 present is bound by the immobilized antibody. After washing away any unbound substances, an enzyme-linked polyclonal antibody specific for MCP-1 is added to the wells. Following a wash to remove any unbound antibody-enzyme reagent, a substrate solution is added to the wells and color develops in proportion to the amount of MCP-1 bound in the initial step. The color development is stopped and the intensity of the color is measured at 450 nm, with wavelength correction at 540 nm or 570 nm.
# MEK1 = biological target: T1, MEK1 (Homo sapiens, UniProt Q02750); assay: MEK1 radiometric kinase assay; type: biochemical; conditions: peptide 100 μM
# T1 construct: purchased Millipore (KinaseProfiler service)
# Source text: A commercial radiometric assay service was used to test the specificity and potency of MMI-0100 ([…]; SEQ ID NO: 1) by measuring its half maximal inhibitory concentrations (IC50). This quantitative assay measures how much MK2 inhibitor (MMI-0100; […] (SEQ ID NO: 1)) is needed to inhibit 50% of a given biological process or component of a process (i.e., an enzyme, cell, or cell receptor). Specifically, in these assays, a positively charged substrate is phosphorylated with a radiolabeled phosphate group from an ATP if the kinase is not inhibited by an inhibitor peptide. The positively charged substrate then is attracted to a negatively charged filter membrane, quantified with a scintillation counter, and compared to a 100% activity control. ATP concentrations within 15 μM of the apparent Km for ATP were chosen since an ATP concentration near the Km may allow for the kinases to have the same relative amount of phosphorylation activity. The individual conditions for each radiometric assay are as follows.
# The reaction was initiated by adding the MgATP. After incubation for 40 minutes at room temperature, 5 μl of this incubation mix was used to initiate the MAPK2 radiometric assay whose reaction condition was the same as the condition for p38 MAPK assay described above.
# IC50 values for inhibitor peptides were determined using Millipore's IC50 Profiler Express service. […]
sequence,measurement,setting,value
YARAAARQARAKALARQLGVAA [MMI-0100],MCP-1 production,[1],"did not stimulate MCP-1 production, even at high doses"
same,"Percent Activity, MEK1",MEK1,68%
